This note sets out measurements from ChEMBL document CHEMBL2401656, “LDK378: a promising anaplastic lymphoma kinase (ALK) inhibitor” (J Med Chem, 2013).

The target in one data set is Cytochrome P450 3A4 (Homo sapiens, UniProt P08684). Put plainly: Inhibition of CYP3A4 (unknown origin). Format: ADME.
A short description of data set [1]: Cytotoxicity against mouse BA/F3 cells expressing NPM-ALK fusion gene assessed as growth inhibition. Type of data set: functional, cell-based. The conditions noted are these: BaF3.
The test system of data set [2] is Rattus norvegicus. In words: Toxicity in rat xenografted with human NCI-H2228 cells expressing EML4-ALK fusion gene. Format: organism-based. The conditions noted are these: in vivo. (In general: A xenograft is tissue or cells of one species grown in another, often human tumour cells in immunodeficient mice.)
Data set [3] deals with Rattus norvegicus. Put plainly: Toxicity in rat xenografted with human KARPAS299 cells. Format: organism-based, KARPAS-299. The conditions noted are these: in vivo.
A short description of data set [4]: Metabolic stability in liver microsomes (unknown origin). Format: ADME, Microsome. Background: Liver microsomes are a subcellular fraction often used to study metabolism.
A short description of data set [5]: Oral bioavailability in rat. Format: ADME, organism-based. Particulars: in vivo; call rule not given here.
Data set [6] is described as follows: Cytotoxicity against wild type mouse BA/F3 cells assessed as growth inhibition. Format: functional, cell-based. Particulars: BaF3.
In data set [7] the test system is KARPAS-299. Particulars: Homo sapiens.
Description: Antitumor activity against human KARPAS299 cells xenografted in rat assessed as tumor growth inhibition
Data set [8] concerns KARPAS-299. In words: Cytotoxicity against human KARPAS299 cells expressing NPM-ALK fusion gene assessed as growth inhibition.
The species named for a further data set is Canis familiaris. Put plainly: Cardiotoxicity in dog assessed as QTc prolongation by telemetric analysis. Format: toxicity, organism-based, Canis lupus familiaris. Particulars: in vivo.
Another data set concerns Rhesus monkey. In words: Cardiotoxicity in monkey assessed as QTc prolongation by telemetric analysis. Format: toxicity, organism-based, Macaca mulatta. Particulars: in vivo.
A short description of data set [9]: Cytotoxicity against mouse BA/F3 cells transfected with Tel-InsR gene assessed as growth inhibition. Particulars: BaF3. Format: functional, cell-based.

The term pIC50 denotes the negative decadic logarithm of the IC50, by convention in mol/L. What is called bioavailability is dose-corrected exposure relative to a reference, in per cent.

pIC50: −log10 of the molar value.

Cytochrome P450 3A4, sequence (P08684 whole entry, the tested form may be a part): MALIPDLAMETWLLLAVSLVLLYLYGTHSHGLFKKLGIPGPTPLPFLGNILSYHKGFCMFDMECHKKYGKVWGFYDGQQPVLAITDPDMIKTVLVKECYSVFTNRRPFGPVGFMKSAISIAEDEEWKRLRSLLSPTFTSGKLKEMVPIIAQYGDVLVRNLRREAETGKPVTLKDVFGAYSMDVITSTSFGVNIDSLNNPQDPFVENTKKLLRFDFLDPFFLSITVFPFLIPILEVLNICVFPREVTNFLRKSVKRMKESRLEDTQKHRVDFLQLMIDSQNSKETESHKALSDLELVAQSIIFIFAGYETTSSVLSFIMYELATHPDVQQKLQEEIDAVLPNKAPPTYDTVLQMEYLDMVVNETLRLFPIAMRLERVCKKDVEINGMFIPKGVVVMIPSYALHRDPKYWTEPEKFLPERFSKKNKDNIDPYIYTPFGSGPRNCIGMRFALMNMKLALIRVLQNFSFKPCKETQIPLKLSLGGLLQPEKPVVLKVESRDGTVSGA

On to `Cc1cc(Nc2ncc(Cl)c(Nc3ccccc3S(=O)(=O)C(C)C)n2)c(OC(C)C)cc1C1CCNCC1` [CERITINIB], for which, on Cytochrome P450 3A4, the “inhibition (INH)” value is “Active”. The negative-log IC50 (pIC50) in data set [1] is 7.59; in data set [6], less than 5.70; in the data set with KARPAS-299 [8], 7.64; in data set [9], 6.49. Moreover, the Activity entry in the data set with Rattus norvegicus [2], in the data set on Rattus norvegicus [3], in the data set listed under Canis familiaris and with Rhesus monkey was “Non-toxic” each time. For the same molecule, the Stability result in data set [4] is recorded as “Stable”. In addition, in data set [5], the bioavailability was greater than 50%. Further, in the data set on KARPAS-299 [7], the TGI entry is “Dose-dependent effect”.
